In patent publication US12404241B2 (Celgene Corporation, priority 2018, dated 2025):
Structures can show the parent of a compound that is named as a salt.

Molecular target: T1, AR (Homo sapiens, UniProt P10275)
T1 construct: endogenous in cells; host or cells: VCaP cells
T1 sequence (P10275 1-920): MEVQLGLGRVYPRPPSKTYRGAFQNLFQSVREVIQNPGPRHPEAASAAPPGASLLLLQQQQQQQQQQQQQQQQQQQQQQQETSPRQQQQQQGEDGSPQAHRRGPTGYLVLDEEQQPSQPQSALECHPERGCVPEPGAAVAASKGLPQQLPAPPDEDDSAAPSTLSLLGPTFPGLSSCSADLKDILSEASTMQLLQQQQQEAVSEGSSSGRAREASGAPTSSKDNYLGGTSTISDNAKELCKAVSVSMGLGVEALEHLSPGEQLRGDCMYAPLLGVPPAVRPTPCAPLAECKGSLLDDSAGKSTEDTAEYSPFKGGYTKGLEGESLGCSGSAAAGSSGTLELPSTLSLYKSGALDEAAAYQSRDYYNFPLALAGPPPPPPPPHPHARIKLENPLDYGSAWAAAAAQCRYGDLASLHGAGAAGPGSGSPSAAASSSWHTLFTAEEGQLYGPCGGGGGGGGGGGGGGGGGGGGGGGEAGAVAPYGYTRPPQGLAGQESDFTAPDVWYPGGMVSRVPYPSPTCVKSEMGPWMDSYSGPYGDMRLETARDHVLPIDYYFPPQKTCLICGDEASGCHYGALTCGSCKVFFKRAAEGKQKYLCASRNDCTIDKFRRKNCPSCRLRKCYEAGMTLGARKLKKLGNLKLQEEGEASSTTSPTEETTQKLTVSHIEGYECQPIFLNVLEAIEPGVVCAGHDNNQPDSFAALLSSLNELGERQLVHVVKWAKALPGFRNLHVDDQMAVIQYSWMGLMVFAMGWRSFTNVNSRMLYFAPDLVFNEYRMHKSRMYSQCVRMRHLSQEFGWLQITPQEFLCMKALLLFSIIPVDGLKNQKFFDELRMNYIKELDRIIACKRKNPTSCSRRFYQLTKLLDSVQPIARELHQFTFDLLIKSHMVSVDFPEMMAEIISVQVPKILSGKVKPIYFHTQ
Test: VCAP AR Degradation Assay
Format: cell-based
Settings: for Y (AR degradation efficiency, % of DMSO control): class symbols *; for DC50: class symbols A-C, read-out: DC50
Experimental: VCAP AR Degradation Assay. Test compounds were pre-dispensed into a Corning CellBind 96-well clear bottom plate (Cat #3300) using an acoustic dispenser to make a 10-point concentration series at 1:3 dilution for each compound. The final top concentration of each compound was 5 μM. DMSO at a final concentration of 0.1% was used as a control. VCaP cells cultured in DMEM with 8% fetal bovine serum (FBS) were seeded at 50K cells per well in a 200 μL volume into the compound plate and incubated at 37° C. in a CO2 incubator for 24 h. The medium was carefully removed from the cells and the plate was placed on ice. One hundred μL of ice-cold 1x cell lysis buffer from Cell Signaling Technologies (Cat #9803) was added to each well of the cells and the plate was incubated at 4° C. on a shaker for 1 h. Fifteen μL of cell lysate was used for AR ELISA detection using a PathScan Total Sandwich AR ELISA kit (Cell Signaling Technology, Cat #12580). AR levels in compound-treated wells were normalized to that of DMSO control and expressed as percent of control (PoC) (y). A Four Parameter Logistic Model (Sigmoidal Dose-Response Model) was used to determine the compound's DC50, and EC50, using the following equation:
[formula] • A=YMin (lowest AR level normalized to DMSO control in response to compound treatment, as determined by curve fit) • B=YMax (maximum AR level as determined by curve fit) • C=EC50 • D=Hill Slope • x=compound concentration • EC50=the concentration of compound when y=(YMax−YMin)/2 • DC50=the concentration of the compound when y=50% of DMSO control (50% AR degradation) • y=AR protein level normalized to DMSO control
The lowest measured AR level normalized to DMSO control in response to compound treatment, termed Y value, was used to characterize the compound-mediated AR degradation efficiency.

SMILES	Y (AR degradation efficiency, % of DMSO control)	DC50 [µM]
CCc1cc(N2C(=S)N(c3ccc(C#N)c(C(F)(F)F)c3)C(=O)C2(C)C)ccc1CCCN1CCN(CC(=O)Nc2cc(F)cc(NC3CCC(=O)NC3=O)c2)CC1 (stereo not drawn) [Example 88, 2-(4-(3-(4-(3-(4-cyano-3-(trifluoromethyl)phenyl)-5,5-dimethyl-4-oxo-2-thioxoimidazolidin-1-yl)-2-ethylphenyl)propyl)piperazin-1-yl)-N-(3-(2,6-dioxopiperidin-3-ylamino)-5-fluorophenyl)acetamide]	* (0<Y<=25%)	< 0.1
C[C@@H]1CN(CCOc2ccc(N3C(=S)N(c4ccc(C#N)c(C(F)(F)F)c4)C(=O)C3(C)C)cc2CCF)CCN1CC(=O)Nc1cc(Cl)cc(NC2CCC(=O)NC2=O)c1 (stereo partly drawn) [Example 135, N-(3-chloro-5-(2,6-dioxopiperidin-3-ylamino)phenyl)-2-((R)-4-(2-(4-(3-(4-cyano-3-(trifluoromethyl)phenyl)-5,5-dimethyl-4-oxo-2-thioxoimidazolidin-1-yl)-2-(2-fluoroethyl)phenoxy)ethyl)-2-methylpiperazin-1-yl)acetamide]	* (0<Y<=25%)	< 0.1
CC1(C)C(=O)N(c2cnc(C#N)c(C(F)(F)F)c2)C(=S)N1c1ccc(OCCN2CCN(CC(=O)Nc3cc(NC4CCC(=O)NC4=O)ccc3F)CC2)c(CCF)c1 (stereo not drawn) [Example 71, 2-(4-(2-(4-(3-(6-cyano-5-(trifluoromethyl)pyridin-3-yl)-5,5-dimethyl-4-oxo-2-thioxoimidazolidin-1-yl)-2-(2-fluoroethyl)phenoxy)ethyl)piperazin-1-yl)-N-(5-(2,6-dioxopiperidin-3-ylamino)-2-fluorophenyl)acetamide]	* (0<Y<=25%)	< 0.1
CC1(C)C(=O)N(c2cnc(C#N)c(C(F)(F)F)c2)C(=S)N1c1ccc(OCCN2CCN(CC(=O)Nc3cc(F)cc(NC4CCC(=O)NC4=O)c3)CC2)c(CC(F)F)c1 (stereo not drawn) [Example 68, 2-(4-(2-(4-(3-(6-cyano-5-(trifluoromethyl)pyridin-3-yl)-5,5-dimethyl-4-oxo-2-thioxoimidazolidin-1-yl)-2-(2,2-difluoroethyl)phenoxy)ethyl)piperazin-1-yl)-N-(3-(2,6-dioxopiperidin-3-ylamino)-5-fluorophenyl)acetamide]	* (0<Y<=25%)	< 0.1
CCc1cc(N2C(=S)N(c3ccc(C#N)c(C(F)(F)F)c3)C(=O)C2(C)C)ccc1OCCN1CCN(CC(=O)Nc2cccc(N[C@H]3CCC(=O)NC3=O)c2)CC1 [Example 27, hydrochloride]	* (0<Y<=25%)	< 0.1
N#Cc1ccc(N2C(=O)C3(CCC3)N(c3ccc(OCCN4CCN(CC(=O)Nc5cccc(NC6CCC(=O)NC6=O)c5)CC4)c(Cl)c3)C2=S)cc1C(F)(F)F (stereo not drawn) [Example 7, hydrochloride]	* (0<Y<=25%)	< 0.1
CC(C)c1cc(N2C(=S)N(c3cnc(C#N)c(C(F)(F)F)c3)C(=O)C23CCC3)ccc1OCCN1C[C@@H](C)N(CC(=O)Nc2cc(F)cc(NC3CCC(=O)NC3=O)c2)[C@@H](C)C1 (stereo partly drawn) [Example 211, 2-((2S,6R)-4-(2-(4-(7-(6-cyano-5-(trifluoromethyl)pyridin-3-yl)-8-oxo-6-thioxo-5,7-diazaspiro[3.4]octan-5-yl)-2-isopropylphenoxy)ethyl)-2,6-dimethylpiperazin-1-yl)-N-(3-(2,6-dioxopiperidin-3-ylamino)-5-fluorophenyl)acetamide]	* (0<Y<=25%)	< 0.1
CC1(C)C(=O)N(c2ccc(C#N)c(C(F)(F)F)c2)C(=S)N1c1ccc(OCCN2CCN(CC(=O)Nc3cccc(NC4CCC(=O)NC4=O)c3)CC2)c(F)c1 (stereo not drawn) [Example 1, formate]	*** (35%<Y<50%)	< 0.1
CCc1cc(N2C(=S)N(c3ccc(C#N)c(C(F)(F)F)c3)C(=O)C23CCC3)ccc1OCCN1CCN(CC(=O)Nc2cc(Cl)cc(NC3CCC(=O)NC3=O)c2)[C@H](C)C1 (stereo partly drawn) [Example 103, N-(3-chloro-5-(2,6-dioxopiperidin-3-ylamino)phenyl)-2-((R)-4-(2-(4-(7-(4-cyano-3-(trifluoromethyl)phenyl)-8-oxo-6-thioxo-5,7-diazaspiro[3.4]octan-5-yl)-2-ethylphenoxy)ethyl)-2-methylpiperazin-1-yl)acetamide]	* (0<Y<=25%)	< 0.1
CCc1cc(N2C(=S)N(c3cnc(C#N)c(C(F)(F)F)c3)C(=O)C23CCC3)ccc1OCCN1C[C@H]2CC[C@@H]1CN2CC(=O)Nc1cccc(NC2CCC(=O)NC2=O)c1 (stereo partly drawn) [Example 182, 2-((1R,4R)-5-(2-(4-(7-(6-cyano-5-(trifluoromethyl)pyridin-3-yl)-8-oxo-6-thioxo-5,7-diazaspiro[3.4]octan-5-yl)-2-ethylphenoxy)ethyl)-2,5-diazabicyclo[2.2.2]octan-2-yl)-N-(3-(2,6-dioxopiperidin-3-ylamino)phenyl)acetamide]	** (25%<Y<=35%)	0.1 to 0.5
C[C@@H](C(=O)Nc1cccc(NC2CCC(=O)NC2=O)c1)N1CCN(CCOc2ccc(N3C(=S)N(c4ccc(C#N)c(C(F)(F)F)c4)C(=O)C3(C)C)cc2Cl)CC1 (stereo partly drawn) [Example 21, hydrochloride]	* (0<Y<=25%)	< 0.1
C[C@@H]1CN(CCOc2ccc(N3C(=S)N(c4ccc(C#N)c(Cl)c4)C(=O)C3(C)C)cc2C2CC2)C[C@H](C)N1CC(=O)Nc1cc(C#N)cc(NC2CCC(=O)NC2=O)c1 (stereo partly drawn) [Example 219, 2-((2S,6R)-4-(2-(4-(3-(3-chloro-4-cyanophenyl)-5,5-dimethyl-4-oxo-2-thioxoimidazolidin-1-yl)-2-cyclopropylphenoxy)ethyl)-2,6-dimethylpiperazin-1-yl)-N-(3-cyano-5-(2,6-dioxopiperidin-3-ylamino)phenyl)acetamide]	** (25%<Y<=35%)	< 0.1
CCc1cc(N2C(=S)N(c3cnc(C#N)c(C(F)(F)F)c3)C(=O)C2(C)C)ccc1OCCN1CCN(CC(=O)Nc2cc(NC3CCC(=O)NC3=O)ccc2Cl)CC1 (single isomer, unassigned) [Example 47]	* (0<Y<=25%)	< 0.1
CC(C)c1cc(N2C(=S)N(c3ccc(C#N)c(C(F)(F)F)c3)C(=O)C2(C)C)ccc1OCCN1C[C@@H](C)N(CC(=O)Nc2cc(C#N)cc(NC3CCC(=O)NC3=O)c2)[C@@H](C)C1 (stereo partly drawn) [Example 194, 2-((2S,6R)-4-(2-(4-(3-(4-cyano-3-(trifluoromethyl)phenyl)-5,5-dimethyl-4-oxo-2-thioxoimidazolidin-1-yl)-2-isopropylphenoxy)ethyl)-2,6-dimethylpiperazin-1-yl)-N-(3-cyano-5-(2,6-dioxopiperidin-3-ylamino)phenyl)acetamide]	* (0<Y<=25%)	< 0.1
CC(F)(F)c1cc(N2C(=S)N(c3cnc(C#N)c(C(F)(F)F)c3)C(=O)C2(C)C)ccc1OCCN1CCN(CC(=O)Nc2cc(Cl)cc(NC3CCC(=O)NC3=O)c2)CC1 (stereo not drawn) [Example 62, N-(3-chloro-5-(2,6-dioxopiperidin-3-ylamino)phenyl)-2-(4-(2-(4-(3-(6-cyano-5-(trifluoromethyl)pyridin-3-yl)-5,5-dimethyl-4-oxo-2-thioxoimidazolidin-1-yl)-2-(1,1-difluoroethyl)phenoxy)ethyl)piperazin-1-yl)acetamide]	* (0<Y<=25%)	< 0.1
